Data taken from PMC8876215, “Anticancer Activity of the Choline Kinase Inhibitor PL48 Is Due to Selective Disruption of Choline Metabolism and Transport Systems in Cancer Cell Lines” (Pharmaceutics, 2022).

Target: T1, ChoKα1 (choline kinase α1) (Homo sapiens, UniProt P35790)
T1 construct: gene CHKA; truncated form of ChoKα1 (Δ75–457), N-terminal 6x His-tag
Test: radiometric assay: [methyl-14C]choline to phosphocholine by purified recombinant enzyme, TLC and scintillation counting
Assay type: biochemical

T1 sequence (P35790 75-457): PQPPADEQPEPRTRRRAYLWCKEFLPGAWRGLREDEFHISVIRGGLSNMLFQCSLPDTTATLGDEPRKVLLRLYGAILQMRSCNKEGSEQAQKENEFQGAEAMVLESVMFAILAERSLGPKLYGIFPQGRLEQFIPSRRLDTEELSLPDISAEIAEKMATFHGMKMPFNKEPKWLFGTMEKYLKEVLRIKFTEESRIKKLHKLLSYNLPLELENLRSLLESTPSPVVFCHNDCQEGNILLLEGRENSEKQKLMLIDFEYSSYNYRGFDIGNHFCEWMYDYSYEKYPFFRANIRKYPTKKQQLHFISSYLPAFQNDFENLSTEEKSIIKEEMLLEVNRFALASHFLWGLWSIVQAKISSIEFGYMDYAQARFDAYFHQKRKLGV

IC50: 658 ± 67 nM
SMILES: Clc1ccc2c(N3CCCC3)cc[n+](Cc3ccc(SCCSc4ccc(C[n+]5ccc(N6CCCC6)c6ccc(Cl)cc65)cc4)cc3)c2c1 [PL48]
